Assay results: publication PMC10600239, “Selective MCL-1 inhibitor ABBV-467 is efficacious in tumor models but is associated with cardiac troponin increases in patients” (Communications Medicine, 2023)

Experiments:
Assay in all cases: Off-target profiling (Supplementary Data 1)
[1] = target: off-target receptors, ion channels, and transporters (Homo sapiens, UniProt P04150); conditions: CEREP
[2] = target: off-target receptors, ion channels, and transporters (Homo sapiens, UniProt Q16539); conditions: TR-FRET Kinome; Invitrogen IVGN Tracer 199 .05(Subs Conc)
[3] = target: off-target receptors, ion channels, and transporters (Homo sapiens, UniProt P07949); conditions: TR-FRET Kinome; Invitrogen A-1180691.2 .1(Subs Conc)
[4] = target: off-target receptors, ion channels, and transporters (Homo sapiens, UniProt P00533); conditions: TR-FRET Kinome; Invitrogen A-1224127.6 .1(Subs Conc)
[5] = target: off-target receptors, ion channels, and transporters (Homo sapiens, UniProt P08908)
[6] = target: off-target receptors, ion channels, and transporters (Homo sapiens, UniProt P08069); conditions: TR-FRET Kinome; Invitrogen A-1198909.2 .2(Subs Conc)
[7] = target: off-target receptors, ion channels, and transporters (Homo sapiens, UniProt P08172)
[8] = target: off-target receptors, ion channels, and transporters (Homo sapiens, UniProt O95819); conditions: TR-FRET Kinome; Invitrogen A-1180691.2 .1(Subs Conc)
[9] = target: off-target receptors, ion channels, and transporters (Homo sapiens, UniProt P06239); conditions: TR-FRET Kinome; Invitrogen A-1167389.7 .1(Subs Conc)
[10] = target: off-target receptors, ion channels, and transporters (Homo sapiens, UniProt P50750); conditions: TR-FRET Kinome; Invitrogen A-1180691.2 .01(Subs Conc)
[11] = target: off-target receptors, ion channels, and transporters (Homo sapiens, UniProt P49841); conditions: TR-FRET Kinome; Invitrogen A-1169612.6 .006(Subs Conc)
[12] = target: off-target receptors, ion channels, and transporters (Homo sapiens, UniProt P29376); conditions: TR-FRET Kinome; Invitrogen A-1224615.7 .0125(Subs Conc)
[13] = target: off-target receptors, ion channels, and transporters (Homo sapiens, UniProt P41240); conditions: TR-FRET Kinome; SignalChem A-1196581.2 .002(Subs Conc)
[14] = target: off-target receptors, ion channels, and transporters (Homo sapiens, UniProt P28223)
[15] = target: off-target receptors, ion channels, and transporters (Homo sapiens, UniProt P17948); conditions: TR-FRET Kinome; Invitrogen A-1167389.7 .0125(Subs Conc)
[16] = target: off-target receptors, ion channels, and transporters (Homo sapiens, UniProt P21554)
[17] = target: off-target receptors, ion channels, and transporters (Homo sapiens, UniProt P48729); conditions: TR-FRET Kinome; Invitrogen A-1180691.2 .05(Subs Conc)
[18] = target: off-target receptors, ion channels, and transporters (Homo sapiens, UniProt P46734); conditions: TR-FRET Kinome; Invitrogen A-1224615.7 .2(Subs Conc)
[19] = target: off-target receptors, ion channels, and transporters (Homo sapiens, UniProt Q9UQM7); conditions: TR-FRET Kinome; Invitrogen A-1169612.6 .003(Subs Conc)
[20] = target: off-target receptors, ion channels, and transporters (Homo sapiens, UniProt Q14432); conditions: Bioprofiling 6pt Antag; cAMP
[21] = target: off-target receptors, ion channels, and transporters (Homo sapiens, UniProt O14965); conditions: TR-FRET Kinome; Invitrogen A-1169612.6 .006(Subs Conc)
[22] = target: off-target receptors, ion channels, and transporters (Homo sapiens, UniProt Q14164); conditions: TR-FRET Kinome; Invitrogen A-1167389.7 .003(Subs Conc)
[23] = target: off-target receptors, ion channels, and transporters (Homo sapiens, UniProt O43318); conditions: TR-FRET Kinome, SignalChem A-1167389.7 .05(Subs Conc)
[24] = target: off-target receptors, ion channels, and transporters (Homo sapiens, UniProt P08913)
[25] = target: off-target receptors, ion channels, and transporters (Homo sapiens, UniProt P30291); conditions: TR-FRET Kinome; Carna Biosciences A-1248830.7 .015(Subs Conc)

Sequence of off-target receptors, ion channels, and transporters (Homo sapiens, UniProt P21554) (P21554 whole entry): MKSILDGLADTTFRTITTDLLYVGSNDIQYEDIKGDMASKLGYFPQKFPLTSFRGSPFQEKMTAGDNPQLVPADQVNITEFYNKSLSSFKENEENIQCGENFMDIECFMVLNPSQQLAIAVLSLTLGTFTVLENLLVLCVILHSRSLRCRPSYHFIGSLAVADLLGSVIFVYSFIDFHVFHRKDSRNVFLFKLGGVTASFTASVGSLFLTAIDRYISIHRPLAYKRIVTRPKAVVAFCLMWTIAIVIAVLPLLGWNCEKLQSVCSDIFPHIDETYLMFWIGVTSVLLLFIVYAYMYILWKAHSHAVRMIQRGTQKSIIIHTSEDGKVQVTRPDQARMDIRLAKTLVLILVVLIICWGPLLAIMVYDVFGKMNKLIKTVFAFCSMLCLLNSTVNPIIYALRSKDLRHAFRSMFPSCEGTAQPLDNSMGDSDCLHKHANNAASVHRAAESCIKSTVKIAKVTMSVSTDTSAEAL
Sequence of off-target receptors, ion channels, and transporters (Homo sapiens, UniProt P28223) (P28223 whole entry): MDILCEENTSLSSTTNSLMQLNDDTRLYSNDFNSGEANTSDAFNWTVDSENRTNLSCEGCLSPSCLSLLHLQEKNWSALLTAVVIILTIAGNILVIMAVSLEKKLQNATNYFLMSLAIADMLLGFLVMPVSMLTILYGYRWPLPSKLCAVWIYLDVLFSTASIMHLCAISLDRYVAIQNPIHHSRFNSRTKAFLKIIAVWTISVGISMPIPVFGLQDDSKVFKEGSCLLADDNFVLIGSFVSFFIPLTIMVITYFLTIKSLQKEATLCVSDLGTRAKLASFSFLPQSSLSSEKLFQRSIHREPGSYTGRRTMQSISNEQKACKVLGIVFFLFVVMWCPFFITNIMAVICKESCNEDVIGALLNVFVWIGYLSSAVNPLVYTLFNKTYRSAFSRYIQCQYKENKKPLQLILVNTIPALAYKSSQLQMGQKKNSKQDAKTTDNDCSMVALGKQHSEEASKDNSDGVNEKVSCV
Sequence of off-target receptors, ion channels, and transporters (Homo sapiens, UniProt P08908) (P08908 whole entry): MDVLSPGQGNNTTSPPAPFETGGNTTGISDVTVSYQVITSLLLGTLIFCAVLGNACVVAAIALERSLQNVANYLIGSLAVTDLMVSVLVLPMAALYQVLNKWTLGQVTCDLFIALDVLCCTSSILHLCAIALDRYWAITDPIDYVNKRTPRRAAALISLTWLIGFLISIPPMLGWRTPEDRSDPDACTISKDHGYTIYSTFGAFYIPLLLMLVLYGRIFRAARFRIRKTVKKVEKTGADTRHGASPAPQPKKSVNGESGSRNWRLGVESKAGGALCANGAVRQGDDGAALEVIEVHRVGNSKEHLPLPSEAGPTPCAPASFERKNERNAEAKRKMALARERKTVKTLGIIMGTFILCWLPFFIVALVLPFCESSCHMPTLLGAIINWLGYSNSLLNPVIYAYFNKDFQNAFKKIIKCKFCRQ
Sequence of off-target receptors, ion channels, and transporters (Homo sapiens, UniProt P08913) (P08913 whole entry): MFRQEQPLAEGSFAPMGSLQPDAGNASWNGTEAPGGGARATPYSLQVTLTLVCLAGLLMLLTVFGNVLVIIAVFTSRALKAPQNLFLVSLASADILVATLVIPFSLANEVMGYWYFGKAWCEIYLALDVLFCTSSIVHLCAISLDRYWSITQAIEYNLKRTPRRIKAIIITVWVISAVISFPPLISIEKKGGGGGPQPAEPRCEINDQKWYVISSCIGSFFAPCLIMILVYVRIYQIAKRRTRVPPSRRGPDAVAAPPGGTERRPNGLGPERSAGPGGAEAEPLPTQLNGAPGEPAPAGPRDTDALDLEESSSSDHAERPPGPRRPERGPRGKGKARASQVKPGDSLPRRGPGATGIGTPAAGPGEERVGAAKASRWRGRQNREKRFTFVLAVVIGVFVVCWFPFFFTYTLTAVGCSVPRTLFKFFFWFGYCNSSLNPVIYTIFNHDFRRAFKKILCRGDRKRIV
Sequence of off-target receptors, ion channels, and transporters (Homo sapiens, UniProt O43318) (O43318 1-303): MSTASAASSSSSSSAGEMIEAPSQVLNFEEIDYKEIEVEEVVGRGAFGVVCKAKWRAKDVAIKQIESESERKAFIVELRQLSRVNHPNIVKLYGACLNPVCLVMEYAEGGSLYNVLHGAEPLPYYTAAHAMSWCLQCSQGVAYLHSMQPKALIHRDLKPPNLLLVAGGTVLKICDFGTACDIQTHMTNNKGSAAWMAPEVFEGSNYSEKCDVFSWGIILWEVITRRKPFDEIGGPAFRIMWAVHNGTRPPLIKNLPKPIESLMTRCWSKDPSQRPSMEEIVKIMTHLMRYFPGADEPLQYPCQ
Sequence of off-target receptors, ion channels, and transporters (Homo sapiens, UniProt O43318) (Q15750 437-504 partner): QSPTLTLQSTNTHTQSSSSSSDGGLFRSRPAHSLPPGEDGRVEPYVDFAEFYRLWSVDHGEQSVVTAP
Sequence of off-target receptors, ion channels, and transporters (Homo sapiens, UniProt P08172) (P08172 whole entry): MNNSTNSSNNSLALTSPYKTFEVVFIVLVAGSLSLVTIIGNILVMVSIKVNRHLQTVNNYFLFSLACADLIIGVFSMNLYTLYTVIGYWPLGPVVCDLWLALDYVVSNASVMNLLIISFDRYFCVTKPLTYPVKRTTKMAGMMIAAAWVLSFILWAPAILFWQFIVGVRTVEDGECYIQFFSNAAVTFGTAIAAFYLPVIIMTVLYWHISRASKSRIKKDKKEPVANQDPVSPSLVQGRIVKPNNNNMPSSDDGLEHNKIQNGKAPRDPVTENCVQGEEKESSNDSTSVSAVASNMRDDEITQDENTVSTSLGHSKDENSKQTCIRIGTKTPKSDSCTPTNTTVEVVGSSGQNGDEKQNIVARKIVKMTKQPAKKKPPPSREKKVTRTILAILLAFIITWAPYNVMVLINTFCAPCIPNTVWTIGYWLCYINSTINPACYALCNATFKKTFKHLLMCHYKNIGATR
Sequence of off-target receptors, ion channels, and transporters (Homo sapiens, UniProt O95819) (O95819 whole entry): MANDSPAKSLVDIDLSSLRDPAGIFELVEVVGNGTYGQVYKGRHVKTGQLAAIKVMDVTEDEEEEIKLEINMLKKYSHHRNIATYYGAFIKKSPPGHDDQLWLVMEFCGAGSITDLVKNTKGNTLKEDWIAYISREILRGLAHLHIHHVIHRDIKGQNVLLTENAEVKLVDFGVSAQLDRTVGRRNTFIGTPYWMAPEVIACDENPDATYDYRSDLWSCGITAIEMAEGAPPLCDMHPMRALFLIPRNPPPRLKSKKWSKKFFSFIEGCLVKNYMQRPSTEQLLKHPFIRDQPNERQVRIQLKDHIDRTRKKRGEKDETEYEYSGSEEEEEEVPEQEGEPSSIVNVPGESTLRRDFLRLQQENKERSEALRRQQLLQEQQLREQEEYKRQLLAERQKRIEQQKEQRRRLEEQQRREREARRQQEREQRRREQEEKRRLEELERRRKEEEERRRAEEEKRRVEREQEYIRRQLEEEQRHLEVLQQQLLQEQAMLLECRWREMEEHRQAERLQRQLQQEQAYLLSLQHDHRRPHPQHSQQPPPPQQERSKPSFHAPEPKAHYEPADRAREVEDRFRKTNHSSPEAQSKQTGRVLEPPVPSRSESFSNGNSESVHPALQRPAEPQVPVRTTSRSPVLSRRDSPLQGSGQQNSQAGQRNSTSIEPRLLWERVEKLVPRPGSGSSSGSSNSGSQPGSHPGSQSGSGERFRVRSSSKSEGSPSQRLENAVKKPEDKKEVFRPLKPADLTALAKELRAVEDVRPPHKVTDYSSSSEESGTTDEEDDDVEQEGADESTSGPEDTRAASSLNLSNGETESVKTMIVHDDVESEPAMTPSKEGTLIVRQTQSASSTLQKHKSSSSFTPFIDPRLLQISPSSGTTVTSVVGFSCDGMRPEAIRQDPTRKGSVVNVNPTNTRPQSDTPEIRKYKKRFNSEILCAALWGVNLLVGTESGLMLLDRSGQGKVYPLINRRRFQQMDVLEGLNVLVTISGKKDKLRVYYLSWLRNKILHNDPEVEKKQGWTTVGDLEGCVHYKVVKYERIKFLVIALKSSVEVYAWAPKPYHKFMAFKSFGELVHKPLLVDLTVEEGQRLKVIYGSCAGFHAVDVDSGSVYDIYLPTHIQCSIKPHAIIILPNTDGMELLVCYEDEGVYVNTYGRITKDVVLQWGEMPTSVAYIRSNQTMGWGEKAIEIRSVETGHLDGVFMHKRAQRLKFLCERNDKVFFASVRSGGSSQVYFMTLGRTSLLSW
Sequence of off-target receptors, ion channels, and transporters (Homo sapiens, UniProt O14965) (O14965 whole entry): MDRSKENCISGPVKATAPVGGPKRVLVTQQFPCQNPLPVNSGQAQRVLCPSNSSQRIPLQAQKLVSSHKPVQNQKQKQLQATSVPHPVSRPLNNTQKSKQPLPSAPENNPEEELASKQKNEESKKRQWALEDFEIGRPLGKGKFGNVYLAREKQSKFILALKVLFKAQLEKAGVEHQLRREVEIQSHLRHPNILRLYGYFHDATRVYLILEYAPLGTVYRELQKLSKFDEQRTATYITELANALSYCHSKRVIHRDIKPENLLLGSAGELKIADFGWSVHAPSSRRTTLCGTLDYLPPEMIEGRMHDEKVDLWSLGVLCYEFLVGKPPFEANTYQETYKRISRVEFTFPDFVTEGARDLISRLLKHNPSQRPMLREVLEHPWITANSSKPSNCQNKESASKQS
Sequence of off-target receptors, ion channels, and transporters (Homo sapiens, UniProt P41240) (P41240 whole entry): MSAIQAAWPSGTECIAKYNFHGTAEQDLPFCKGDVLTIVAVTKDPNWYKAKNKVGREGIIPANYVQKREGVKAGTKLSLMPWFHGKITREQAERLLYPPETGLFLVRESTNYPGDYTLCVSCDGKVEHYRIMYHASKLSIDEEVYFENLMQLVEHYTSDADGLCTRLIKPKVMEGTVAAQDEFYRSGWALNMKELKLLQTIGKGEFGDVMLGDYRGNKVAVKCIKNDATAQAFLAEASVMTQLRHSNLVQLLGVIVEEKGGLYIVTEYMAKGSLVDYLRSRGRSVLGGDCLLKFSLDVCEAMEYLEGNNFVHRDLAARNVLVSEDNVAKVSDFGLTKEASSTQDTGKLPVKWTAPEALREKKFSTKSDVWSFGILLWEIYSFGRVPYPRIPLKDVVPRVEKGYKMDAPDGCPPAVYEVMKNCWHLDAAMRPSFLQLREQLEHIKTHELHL

Cc1c(Cl)c2c(Cl)c(C)c1-c1c(-c3ccc(F)cc3)sc3ncnc(c13)O[C@@H](C(=O)O)Cc1cc(ccc1OCc1ccnc(-c3ccc(OC[C@H]4COCCO4)cc3)n1)OC[C@@H](CN1CCN(C)CC1)O2 [ABBV-467]
Glucocorticoid Human Agonist Ligand (Binding Assay) - IC50 [1]: 1 µM
p38 alpha - IC50 [2]: > 10 µM
RET - IC50 [3]: > 10 µM
EGFR - IC50 [4]: > 10 µM
5-HT1A CHO Human - EC50 ([5]; Bioprofiling 6pt Ag): > 10 µM
5-HT1A CHO Human - IC50 ([5]; Bioprofiling 6pt Antag, 5-Carboxytryptamine (5-CT)): > 10 µM
IGF1R - IC50 [6]: > 10 µM
M2 CHO Human - EC50 ([7]; Bioprofiling 6pt Ag): > 10 µM
M2 CHO Human - IC50 ([7]; Bioprofiling 6pt Antag, Carbachol): > 10 µM
MAP4K4 - IC50 [8]: > 10 µM
Lck - IC50 [9]: > 10 µM
CDK9/Cyclin K - IC50 [10]: 4.24 µM
Gsk3b - IC50 [11]: 9.9 µM
LTK - IC50 [12]: > 10 µM
CSK - IC50 [13]: > 10 µM
5-HT2A CHO Human - EC50 ([14]; Bioprofiling 6pt Ag): > 10 µM
5-HT2A CHO Human - IC50 ([14]; Bioprofiling 6pt Antag, Serotonin (5-HT)): > 10 µM
Flt1 - IC50 [15]: > 10 µM
CB1 CHO Human - EC50 ([16]; Bioprofiling 6pt Ag): > 10 µM
CB1 CHO Human - IC50 ([16]; Bioprofiling 6pt Antag, WIN 55,212-2): > 10 µM
Ck1alpha1 - IC50 [17]: > 10 µM
MAP2K3 - IC50 [18]: > 10 µM
CAMK2A - IC50 [19]: > 10 µM
PDE3A Human - IC50 [20]: > 10 µM
Aurora2 - IC50 [21]: > 10 µM
IKKE - IC50 [22]: > 10 µM
IC50 ([23]; read-out: TAK1-TAB1 - IC50): > 10 µM
Ki ([23]; read-out: TAK1-TAB1 - Ki): > 3.91 µM
EC50 ([24]; read-out: Alpha2A CHO Human - EC50, Bioprofiling 6pt Ag): > 10 µM
IC50 ([24]; read-out: Alpha2A CHO Human - IC50, Bioprofiling 6pt Antag, UK-14304): > 10 µM
Wee1 - IC50 [25]: > 10 µM
